We go through 6 compounds from patent publication US10150760B2, “Compounds for use in preparing heterocyclic triazole agonists of the APJ receptor” (AMGEN INC., priority 2016, dated 2018).

human APJ receptor, sequence (P35414 whole entry): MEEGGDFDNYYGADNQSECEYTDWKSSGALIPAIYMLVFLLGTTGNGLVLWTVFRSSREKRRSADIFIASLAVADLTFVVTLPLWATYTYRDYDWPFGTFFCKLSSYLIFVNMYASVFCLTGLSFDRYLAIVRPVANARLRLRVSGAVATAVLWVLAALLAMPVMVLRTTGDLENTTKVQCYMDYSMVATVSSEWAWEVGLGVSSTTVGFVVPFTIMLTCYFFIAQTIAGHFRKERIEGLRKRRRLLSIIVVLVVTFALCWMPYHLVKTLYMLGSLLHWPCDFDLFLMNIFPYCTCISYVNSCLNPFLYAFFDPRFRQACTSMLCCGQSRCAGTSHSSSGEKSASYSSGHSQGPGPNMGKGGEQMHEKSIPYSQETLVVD

The target of the assay is human APJ receptor (Homo sapiens (Human), UniProt P35414). Put plainly: [35S]GTPγS binding assay on membranes from CHO cells stably expressing human APJ receptor. It is filed as biochemical. The settings on record: read-out: Activity hAPJ SPA EC50 IP. In a few lines:
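Agonist-driven [35S]GTPγS (0.2 nM) binding was measured over 90 min at room temperature on human APJ-expressing CHO membranes with bead capture, in buffer containing 3 μM GDP, 200 mM NaCl and 5 mM MgCl2 (pH 7.5). Excess unlabelled GTPγS (100 μM) gave nonspecific signal; EC50 from non-linear fits.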
Background: Binding of GTPγS marks nucleotide exchange on a G protein.
Consider `COc1ncnc(OC)c1-n1c(NS(=O)(=O)[C@@H](C)[C@H](OC)c2ncc(Cl)cn2)nnc1C1CCCOC1` (single isomer, unassigned) [Example 91.0, (1R,2S)-1-(5-chloropyrimidin-2-yl)-N-(4-(4,6-dimethoxypyrimidin-5-yl)-5-((S)-tetrahydro-2H-pyran-3-yl)-4H-1,2,4-triazol-3-yl)-1-methoxypropane-2-sulfonamide or (1R,2S)-1-(5-chloropyrimidin-2-yl)-N-(4-(4,6-dimethoxypyrimidin-5-yl)-5-((R)-tetrahydro-2H-pyran-3-yl)-4H-1,2,4-triazol-3-yl)-1-methoxypropane-2-sulfonamide], for which the EC50 was 290 nM. To `COc1ncnc(OC)c1-n1c(NS(=O)(=O)[C@@H](C)[C@H](OC)c2ncc(Cl)cn2)nnc1[C@H]1CCCOC1` (single isomer, unassigned) [Example 92.0, (1R,2S)-1-(5-chloropyrimidin-2-yl)-N-(4-(4,6-dimethoxypyrimidin-5-yl)-5-((S)-tetrahydro-2H-pyran-3-yl)-4H-1,2,4-triazol-3-yl)-1-methoxypropane-2-sulfonamide or (1R,2S)-1-(5-chloropyrimidin-2-yl)-N-(4-(4,6-dimethoxypyrimidin-5-yl)-5-((R)-tetrahydro-2H-pyran-3-yl)-4H-1,2,4-triazol-3-yl)-1-methoxypropane-2-sulfonamide] belongs 42 nM. Then `COc1ncnc(OC)c1-n1c(NS(=O)(=O)[C@@H](C)[C@H](C)c2ncc(Cl)cn2)nnc1[C@H]1CCOC1` (single isomer, unassigned) [Example 93.0, (2S,3R)-3-(5-chloropyrimidin-2-yl)-N-(4-(4,6-dimethoxypyrimidin-5-yl)-5-((R)-tetrahydrofuran-3-yl)-4H-1,2,4-triazol-3-yl)butane-2-sulfonamide or (2S,3R)-3-(5-chloropyrimidin-2-yl)-N-(4-(4,6-dimethoxypyrimidin-5-yl)-5-((S)-tetrahydrofuran-3-yl)-4H-1,2,4-triazol-3-yl)butane-2-sulfonamide], with 170 nM; and `COc1ncnc(OC)c1-n1c(NS(=O)(=O)[C@@H](C)[C@H](C)c2ncc(Cl)cn2)nnc1[C@H]1CCOC1` (single isomer, unassigned) [Example 94.0, (2S,3R)-3-(5-chloropyrimidin-2-yl)-N-(4-(4,6-dimethoxypyrimidin-5-yl)-5-((R)-tetrahydrofuran-3-yl)-4H-1,2,4-triazol-3-yl)butane-2-sulfonamide or (2S,3R)-3-(5-chloropyrimidin-2-yl)-N-(4-(4,6-dimethoxypyrimidin-5-yl)-5-((S)-tetrahydrofuran-3-yl)-4H-1,2,4-triazol-3-yl)butane-2-sulfonamide], with 190 nM; and `COc1ncnc(OC)c1-n1c(NS(=O)(=O)[C@@H](C)[C@@H](OC(C)C)c2ncc(C)cn2)nnc1[C@H]1CCCO1` (single isomer, unassigned) [Example 95.0, (1S,2S)-N-(4-(4,6-dimethoxypyrimidm-5-yl)-5-((S)-tetrahydrofuran-2-yl)-4H-1,2,4-triazol-3-yl)-1-isopropoxy-1-(5-methylpyrimidin-2-yl)propane-2-sulfonamide or (1S,2S)-N-(4-(4,6-dimethoxypyrimidin-5-yl)-5-((R)-tetrahydrofuran-2-yl)-4H-1,2,4-triazol-3-yl)-1-isopropoxy-1-(5-methylpyrimidin-2-yl)propane-2-sulfonamide], with 15 nM.

`COc1ncnc(OC)c1-n1c(NS(=O)(=O)[C@@H](C)[C@@H](OC(C)C)c2ncc(C)cn2)nnc1[C@H]1CCCO1` (single isomer, unassigned) [Example 96.0, (1S,2S)-N-(4-(4,6-dimethoxypyrimidm-5-yl)-5-((S)-tetrahydrofuran-2-yl)-4H-1,2,4-triazol-3-yl)-1-isopropoxy-1-(5-methylpyrimidin-2-yl)propane-2-sulfonamide or (1S,2S)-N-(4-(4,6-dimethoxypyrimidin-5-yl)-5-((R)-tetrahydrofuran-2-yl)-4H-1,2,4-triazol-3-yl)-1-isopropoxy-1-(5-methylpyrimidin-2-yl)propane-2-sulfonamide]: the EC50 is 190 nM.

In general, EC50 refers to the concentration that produces a half-maximal response.
